Source: US8952024B2, “Herbicidal pyrimidone derivatives” (E I du Pont de Nemours and Company, priority 2009, dated 2015)
Read-outs that look alike come from different tables or passages of the source.

Columns and labels:
Experiment in all cases: Test B pre-/postemergence plant response
Type in all cases: in vivo
[1] = tested on: green foxtail (Setaria viridis); conditions: for pest or weed control at 16 g/ha: 16 g ai/ha; for pest or weed control at 16 g/ha / pest or weed control at 31 g/ha / pest or weed control at 62 g/ha: read-out: Plant response rating, Foxtail, Green; for pest or weed control at 31 g/ha: 31 g ai/ha; for pest or weed control at 62 g/ha: 62 g ai/ha
Summary of the method: (§1)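 Seeds were sown in loam soil/sand blend and treated preemergence with compound in non-phytotoxic solvent mixture containing surfactant; postemergence sprays, same formulation, went onto plants 2 to 18 cm (1- to 4-leaf stage) in peat-based planting medium. Greenhouse 13 to 15 days, then visual rating versus untreated controls, 0 (no effect) to 100 (complete control).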

[2] = tested on: bermudagrass (Cynodon dactylon); conditions: for pest or weed control at 16 g/ha: 16 g ai/ha; for pest or weed control at 31 g/ha: 31 g ai/ha; for pest or weed control at 62 g/ha: 62 g ai/ha
Summary of the method: as §1

[3] = tested on: johnsongrass (Sorghum halepense); conditions: for pest or weed control at 16 g/ha: 16 g ai/ha; for pest or weed control at 16 g/ha / pest or weed control at 31 g/ha / pest or weed control at 62 g/ha: read-out: Plant response rating, Johnsongrass; for pest or weed control at 31 g/ha: 31 g ai/ha; for pest or weed control at 62 g/ha: 62 g ai/ha
Summary of the method: as §1

[4] = tested on: lambsquarters (Chenopodium album); conditions: for pest or weed control at 16 g/ha: 16 g ai/ha; for pest or weed control at 16 g/ha / pest or weed control at 31 g/ha / pest or weed control at 62 g/ha: read-out: Plant response rating, Lambsquarters; for pest or weed control at 31 g/ha: 31 g ai/ha; for pest or weed control at 62 g/ha: 62 g ai/ha
Summary of the method: as §1

[5] = tested on: blackgrass (Alopecurus myosuroides); conditions: for pest or weed control at 16 g/ha: 16 g ai/ha; for pest or weed control at 16 g/ha / pest or weed control at 31 g/ha / pest or weed control at 62 g/ha: read-out: Plant response rating, Blackgrass; for pest or weed control at 31 g/ha: 31 g ai/ha; for pest or weed control at 62 g/ha: 62 g ai/ha
Summary of the method: as §1

[6] = tested on: large crabgrass (Digitaria sanguinalis); conditions: for pest or weed control at 16 g/ha: 16 g ai/ha; for pest or weed control at 16 g/ha / pest or weed control at 31 g/ha / pest or weed control at 62 g/ha: read-out: Plant response rating, Crabgrass, Large; for pest or weed control at 31 g/ha: 31 g ai/ha; for pest or weed control at 62 g/ha: 62 g ai/ha
Summary of the method: as §1

[7] = tested on: Italian ryegrass (Lolium multiflorum); conditions: for pest or weed control at 31 g/ha: 31 g ai/ha; for pest or weed control at 62 g/ha: 62 g ai/ha
Summary of the method: as §1

[8] = tested on: velvetleaf (Abutilon theophrasti); conditions: for pest or weed control at 31 g/ha: 31 g ai/ha; for pest or weed control at 31 g/ha / pest or weed control at 62 g/ha: read-out: Plant response rating, Velvetleaf; for pest or weed control at 62 g/ha: 62 g ai/ha
Summary of the method: as §1

[9] = tested on: woolly cupgrass (Eriochloa villosa); conditions: Eriochloa villosa, post-emergence, Postemergence
Summary of the method: as §1

[10] = Preemergence, 125 g ai/ha, 0 to 100 scale
[11] = Setaria viridis, pre-emergence, Preemergence, scale 0 to 100 (0 no effect, 100 complete control)
[12] = Cynodon dactylon, pre-emergence, Preemergence, scale 0 to 100 (0 no effect, 100 complete control), read-out: Plant response rating, Bermudagrass
[13] = Sorghum halepense, pre-emergence, Preemergence, scale 0 to 100 (0 no effect, 100 complete control)
[14] = Chenopodium album, pre-emergence, Preemergence, scale 0 to 100 (0 no effect, 100 complete control)
[15] = Alopecurus myosuroides, pre-emergence, 360 h, Preemergence, scale 0 to 100 (0 no effect, 100 complete control)
[16] = Digitaria sanguinalis, pre-emergence, Preemergence, scale 0 to 100 (0 no effect, 100 complete control)
[17] = Lolium multiflorum, pre-emergence, Preemergence, scale 0 to 100 (0 no effect, 100 complete control), read-out: Plant response rating, Ryegrass, Italian
[18] = Abutilon theophrasti, pre-emergence, 360 h, Preemergence, scale 0 to 100 (0 no effect, 100 complete control)

O=C1CCCC(O)=C1C(=O)c1cnc(-c2ccccc2)n(-c2ccccc2)c1=O [Compound 2, 5-[(2-hydroxy-6-oxo-1-cyclohexen-1-yl)carbonyl]-2,3-diphenyl-4(3H)-pyrimidinone]
Foxtail, Green plant response rating [1, 10]: 60
pest or weed control at 16 g/ha ([1]; Setaria viridis, post-emergence, Postemergence, 0 to 100 scale): 50%
pest or weed control at 31 g/ha ([1]; Setaria viridis, post-emergence, Postemergence, scale 0 to 100 (0 no effect, 100 complete control)): 75%
pest or weed control at 62 g/ha ([1]; Setaria viridis, post-emergence, Postemergence, scale 0 (no effect) to 100 (complete control), 13 to 15 days): 90%
pest or weed control at 125 g/ha ([1]; Setaria viridis, post-emergence, Postemergence, 125 g ai/ha, visual rating after 13 to 15 days, scale 0 (no effect) to 100 (complete control)): 100%
pest or weed control at 16 g/ha [1, 11]: 0%
pest or weed control at 31 g/ha [1, 11]: 0%
pest or weed control at 62 g/ha ([1]; Setaria viridis, pre-emergence, Preemergence, scale 0 to 100, 0 no effect, 100 complete control): 5%
pest or weed control at 16 g/ha ([2]; Cynodon dactylon, post-emergence, Postemergence, 0 to 100 scale, read-out: Plant response rating, Bermudagrass): 40%
pest or weed control at 31 g/ha ([2]; Cynodon dactylon, post-emergence, Postemergence, scale 0 to 100 (0 no effect, 100 complete control), read-out: Plant response rating, Bermudagrass): 80%
pest or weed control at 62 g/ha ([2]; Cynodon dactylon, post-emergence, Postemergence, scale 0 (no effect) to 100 (complete control), 13 to 15 days, read-out: Plant response rating, Bermudagrass): 85%
pest or weed control at 125 g/ha ([2]; Cynodon dactylon, post-emergence, Postemergence, 125 g ai/ha, scale 0 to 100 (0 no effect, 100 complete control), 13 to 15 days, read-out: Plant response rating, Bermudagrass): 90%
pest or weed control at 16 g/ha [2, 12]: 25%
pest or weed control at 31 g/ha [2, 12]: 98%
pest or weed control at 62 g/ha ([2]; Cynodon dactylon, pre-emergence, Preemergence, scale 0 to 100, 0 no effect, 100 complete control, read-out: Plant response rating, Bermudagrass): 100%
Bermudagrass plant response rating [2, 10]: 100
Johnsongrass plant response rating [3, 10]: 80
pest or weed control at 16 g/ha ([3]; Sorghum halepense, post-emergence, Postemergence, 0 to 100 scale): 75%
pest or weed control at 31 g/ha ([3]; Sorghum halepense, post-emergence, Postemergence, scale 0 to 100 (0 no effect, 100 complete control)): 85%
pest or weed control at 62 g/ha ([3]; Sorghum halepense, post-emergence, Postemergence, scale 0 (no effect) to 100 (complete control), 13 to 15 days): 90%
pest or weed control at 125 g/ha ([3]; Sorghum halepense, post-emergence, Postemergence, 125 g ai/ha, visual rating after 13 to 15 days, scale 0 (no effect) to 100 (complete control)): 98%
pest or weed control at 16 g/ha [3, 13]: 0%
pest or weed control at 31 g/ha [3, 13]: 60%
pest or weed control at 62 g/ha ([3]; Sorghum halepense, pre-emergence, Preemergence, scale 0 to 100, 0 no effect, 100 complete control): 65%
pest or weed control at 16 g/ha ([4]; Chenopodium album, post-emergence, Postemergence, 0 to 100 scale): 80%
pest or weed control at 31 g/ha ([4]; Chenopodium album, post-emergence, Postemergence, scale 0 to 100 (0 no effect, 100 complete control)): 90%
pest or weed control at 62 g/ha ([4]; Chenopodium album, post-emergence, Postemergence, scale 0 (no effect) to 100 (complete control), 13 to 15 days): 90%
pest or weed control at 125 g/ha ([4]; Chenopodium album, post-emergence, Postemergence, 125 g ai/ha, visual rating after 13 to 15 days, scale 0 (no effect) to 100 (complete control)): 95%
pest or weed control at 16 g/ha [4, 14]: 100%
pest or weed control at 31 g/ha [4, 14]: 100%
pest or weed control at 62 g/ha ([4]; Chenopodium album, pre-emergence, Preemergence, scale 0 to 100, 0 no effect, 100 complete control): 100%
Lambsquarters plant response rating [4, 10]: 100
pest or weed control at 16 g/ha ([5]; Alopecurus myosuroides, post-emergence, 360 h, Postemergence, 0 to 100 scale): 0%
pest or weed control at 31 g/ha ([5]; Alopecurus myosuroides, post-emergence, 360 h, Postemergence, scale 0 to 100 (0 no effect, 100 complete control)): 10%
pest or weed control at 62 g/ha ([5]; Alopecurus myosuroides, post-emergence, 360 h, Postemergence, scale 0 (no effect) to 100 (complete control), 13 to 15 days): 30%
pest or weed control at 125 g/ha ([5]; Alopecurus myosuroides, post-emergence, 360 h, Postemergence, 125 g ai/ha, visual rating after 13 to 15 days, scale 0 (no effect) to 100 (complete control)): 45%
pest or weed control at 16 g/ha [5, 15]: 0%
pest or weed control at 31 g/ha [5, 15]: 0%
pest or weed control at 62 g/ha ([5]; Alopecurus myosuroides, pre-emergence, 360 h, Preemergence, scale 0 to 100, 0 no effect, 100 complete control): 0%
Blackgrass plant response rating [5, 10]: 50
pest or weed control at 16 g/ha ([6]; Digitaria sanguinalis, post-emergence, Postemergence, 0 to 100 scale): 70%
pest or weed control at 31 g/ha ([6]; Digitaria sanguinalis, post-emergence, Postemergence, scale 0 to 100 (0 no effect, 100 complete control)): 80%
pest or weed control at 62 g/ha ([6]; Digitaria sanguinalis, post-emergence, Postemergence, scale 0 (no effect) to 100 (complete control), 13 to 15 days): 85%
pest or weed control at 125 g/ha ([6]; Digitaria sanguinalis, post-emergence, Postemergence, 125 g ai/ha, visual rating after 13 to 15 days, scale 0 (no effect) to 100 (complete control)): 90%
pest or weed control at 16 g/ha [6, 16]: 0%
pest or weed control at 31 g/ha [6, 16]: 15%
pest or weed control at 62 g/ha ([6]; Digitaria sanguinalis, pre-emergence, Preemergence, scale 0 to 100, 0 no effect, 100 complete control): 100%
Crabgrass, Large plant response rating [6, 10]: 100
pest or weed control at 16 g/ha ([7]; Lolium multiflorum, post-emergence, 16 g ai/ha, Postemergence, 0 to 100 scale, read-out: Plant response rating, Ryegrass, Italian): 0%
pest or weed control at 31 g/ha ([7]; Lolium multiflorum, post-emergence, Postemergence, scale 0 to 100 (0 no effect, 100 complete control), read-out: Plant response rating, Ryegrass, Italian): 0%
pest or weed control at 62 g/ha ([7]; Lolium multiflorum, post-emergence, Postemergence, scale 0 (no effect) to 100 (complete control), 13 to 15 days, read-out: Plant response rating, Ryegrass, Italian): 40%
pest or weed control at 125 g/ha ([7]; Lolium multiflorum, post-emergence, Postemergence, 125 g ai/ha, visual rating after 13 to 15 days, scale 0 (no effect) to 100 (complete control)): 40%
pest or weed control at 31 g/ha [7, 17]: 0%
pest or weed control at 62 g/ha [7, 17]: 0%
Ryegrass, Italian plant response rating [7, 10]: 5
pest or weed control at 31 g/ha ([8]; Abutilon theophrasti, post-emergence, 360 h, Postemergence, scale 0 to 100 (0 no effect, 100 complete control)): 85%
pest or weed control at 62 g/ha ([8]; Abutilon theophrasti, post-emergence, 360 h, Postemergence, scale 0 (no effect) to 100 (complete control), 13 to 15 days): 85%
pest or weed control at 125 g/ha ([8]; Abutilon theophrasti, post-emergence, 360 h, Postemergence, 125 g ai/ha, visual rating after 13 to 15 days, scale 0 (no effect) to 100 (complete control)): 90%
pest or weed control at 31 g/ha [8, 18]: 75%
pest or weed control at 62 g/ha [8, 18]: 90%
Velvetleaf plant response rating [8, 10]: 100
pest or weed control at 16 g/ha ([9]; 16 g ai/ha, 0 to 100 scale, read-out: Plant response rating, Cupgrass, Woolly): 75%
pest or weed control at 31 g/ha ([9]; 31 g ai/ha, scale 0 to 100 (0 no effect, 100 complete control), read-out: Plant response rating, Cupgrass, Woolly): 75%
pest or weed control at 62 g/ha ([9]; 62 g ai/ha, scale 0 (no effect) to 100 (complete control), 13 to 15 days, read-out: Plant response rating, Cupgrass, Woolly): 80%
pest or weed control at 125 g/ha ([9]; 125 g ai/ha, visual rating after 13 to 15 days, scale 0 (no effect) to 100 (complete control)): 85%
